For series [1], the system named is MC-9 cells. The series is described as follows: Exocytic light scatter changes on the flow cytometer. In kind it is cell-based. How it is done: (§1) Experiments were carried out in modified tyrodes buffer (MD which consisted of NaCl (137 mM), KCl (2.7 mM), CaCl2 (1.8 mM), MgCl2 (1 mM), Glucose (5.6 mM), Hepes (20 mM, pH 7.4), and bovine serum albumin (0.1%). MC-9 cells were spun at 400×g and the media was aspirated. The cells were then washed with MT, respun/aspirated and taken up in MT at a density of 5×10^6 cells/ml. Cells were then treated with either DMSO or ionophore for 30 minutes (or the time was varied if a timecourse). The cells were then pelleted with the supernatant collected for enzymatic analysis; in some cases, the cells then processed for flow cytometry. All stimulations were carried out at 37° C. Stimulations of RBL-2H3 cells were carried out by washing the adherent cells one time in MT and then adding warmed MT (1 ml/10^6 cells) containing the stimulus. The cells were incubated at 37° C. for 30 minutes and the supernatant was harvested for further analysis. In some of the examples, (Examples 4-6), the plate bound cells were stained for annexin and then removed from the flask using No-Zyme (Collaborative Research, Inc.) for further processing for flow cytometry. For stimulation of RBL-2H3 cells with antigen crosslinking the cells were incubated overnight with IgE anti-DNP (Sigma Chemical Co.) in complete media at a concentration of 50 ng/ml. The following day they were washed one time in MT and stimulated as described above with the exception that bovine serum albumin coupled to DNP was used as the stimulus at 100 ng/ml.
(§2) Cells processed for stimulation and staining were taken up in MT on ice and filtered through a 100 μm filter prior to cytometry. Cells were analyzed using a FACSCAN (Becton Dickinson Inc., laser line […]) or a Mo-Flo (Cytomation, Inc., laser lines 350 nM broadband (UV), 488 nm, and 647 nm) Cytometer. Cells were sorted, if desired using the Mo-Flo.
(§3) The cells were prepared as described in Example 2, and light scatter properties were determined.
(In flow cytometry, cells or beads pass a laser one at a time.)

Series [2] has as its system RBL-2H3 cells. The series is described as above. In kind it is cell-based. The conditions noted are these: 0.5 ug/ml, 0 and 10 minutes. The procedure:
as §1, §2, §3

The subject of series [3] is MC-9 cells. As to the kind of experiment: In situ enzymology (ELF-97 glucuronide, cell surface glucuronidase) by FACS. Format: cell-based. The conditions noted are these: 0.5 μg/ml vs DMSO. How it is done:
MC-9 cells were stimulated for exocytosis as described above and then incubated in enyme substrate buffer (BSA free MT, pH 4.3-7.4 range) containing the substrate ELF-97 Glucuronide (250 NM) for 15 minutes at 37° C. The cells were washed one time in MT and then viewed in the microscope or on the flowcytometer. Further methodologies are described in the preceding examples.

In series [4] the test system is MC-9 cells. The series is described as follows: Propidium iodide staining (plasma membrane integrity) by FACS. The conditions noted are these: 2 μm vs DMSO. In kind it is cell-based. The procedure: as §1, with “The following day they were washed one time in MT and stimulated as described above with the exception that bovine serum albumin coupled to DNP was used as the stimulus at 100 ng/ml.” left out

The test system of series [5] is MC-9 cells. The series is described as follows: Styryl dye (FM 1-43 / FM 4-64) uptake exocytosis assay by FACS. In kind it is cell-based. Conditions: 2 μM vs DMSO. How it is done:
as §1, with “For stimulation of RBL-2H3 cells with antigen crosslinking the cells were incubated overnight with IgE anti-DNP (Sigma Chemical Co.) in complete media at a concentration of 50 ng/ml. The following day they were washed one time in MT and stimulated as described above with the exception that bovine serum albumin coupled to DNP was used as the stimulus at 100 ng/ml.” left out
The cells were prepared as described above. […] The cells were then ready for analysis in the flow cytometer (see Example 2).

The subject of series [6] is MC-9 cells. The series is described as follows: Lysotracker green release from granules by FACS. Format: cell-based. How it is done: Lysotracker dyes (blue, green, and red) were loaded into cells by diluting them to a final concentration of 1 μM in complete media and incubating the cells for 60 minutes at 37° C. in their presence. After loading, the cells were washed two times in MT and then were ready for further analysis or stimulation. Further methodologies are described in the preceding examples.

In series [7] the test system is MC-9 cells. As to the kind of experiment: Annexin-V staining exocytosis assay by FACS. Format: cell-based. How it is done:
as §1
Cells post exocytic stimulus were stained with annexin-PITC at a dilution of 1/100 in MT for 10 minutes at room temperature. The cells were then washed one time in MT, taken up in MT and viewed in the flow cytometer or microscope. For indirect labeling, annexin-biotin was added to the MT during the stimulation procedure at a dilution of 1/200. The cells were then pelleted in ice cold MT, spun, aspirated, and taken up in ice cold MT with streptavidin-APC at a dilution of 1/200 and kept on ice for 15 minutes. […]

Series [8] has as its system MC-9 cells. As to the kind of experiment: Population based exocytic enzyme activity assay on cell supernatant. The conditions noted are these: 2 μm, 30 minutes, vs DMSO. The procedure:
(§4) Experiments were carried out in modified tyrodes buffer (MD which consisted of NaCl (137 mM), KCl (2.7 mM), CaCl2 (1.8 mM), MgCl2 (1 mM), Glucose (5.6 mM), Hepes (20 mM, pH 7.4), and bovine serum albumin (0.1%). MC-9 cells were spun at 400×g and the media was aspirated. The cells were then washed with MT, respun/aspirated and taken up in MT at a density of 5×10^6 cells/ml. Cells were then treated with either DMSO or ionophore for 30 minutes (or the time was varied if a timecourse). The cells were then pelleted with the supernatant collected for enzymatic analysis; in some cases, the cells then processed for flow cytometry. All stimulations were carried out at 37° C. Stimulations of RBL-2H3 cells were carried out by washing the adherent cells one time in MT and then adding warmed MT (1 ml/10^6 cells) containing the stimulus. The cells were incubated at 37° C. for 30 minutes and the supernatant was harvested for further analysis. […]
(§5) Enzyme assays were carried out on cell supernatants and pellets following exocytic stimulation. […] The plate was read on a fluorescence plate reader (Wallac, Inc.) using excitation 380 nm/emission 440 nm filters every 3 minutes for five times to obtain an enzymatic rate; analyses were carried out in triplicate.

The test system of series [9] is RBL-2H3 cells. The series is described as follows: Population based exocytic enzyme activity assay on cell supernatant, antigen crosslinking. Conditions: RBL-2H3 sensitized 16 hours with varying IgE anti-DNP, stimulated with increasing BSA-DNP. How it is done: as §4, §5
For series [10], the system named is RBL-2H3 cells. As to the kind of experiment: Annexin-V-FITC staining of exocytic granules, antigen crosslinking, microscopy. Format: cell-based. The conditions noted are these: IgE-sensitized RBL-2H3 cells, 100 ng/ml vs MT buffer only. How it is done:
as §4, with “analysis. In some of the examples, (Examples 4-6), the plate bound cells were stained for annexin and then removed from the flask using No-Zyme (Collaborative Research, Inc.) for further processing for flow cytometry.” for “analysis.”
Cells post stimulation or staining were mounted onto glass slides and coverslipped; these were directly visualized by brighffield and fluorescence microscopy on an inverted microscope (TE300, Nikon) using standard BFP, FITC, or TRITC filter sets. […]

Where [11] appears, read: MC-9 cells, 0, 1, 2, 3 μM, four-parameter analysis.

Experimental findings from patent US8334238B2, “Multiparameter FACS assays to detect alterations in cellular parameters and to screen small molecule libraries” (Rigel, Inc., priority 1998, dated 2012) are described below.

For `CNc1ccc2oc(C[C@H]3O[C@@]4(CC[C@H]3C)O[C@H]([C@H](C)C(=O)c3ccc[nH]3)[C@H](C)C[C@H]4C)nc2c1C(=O)O` [A23187], the “light scatter changes (side scatter vs. forward scatter)” value with MC-9 cells [1] (MC-9 cells, 0.5 ug/ml, 0, 5 and 30 minutes) is recorded as “Time dependent scatter changes are evident”; in the series with RBL-2H3 cells [2] it was “Time dependent scatter changes are evident”. Besides, the “ELF-97 signal (cell surface enzymatic precipitate, in situ glucuronidase activity)” value with MC-9 cells [3] is “significant increase in signal”.
With `C[C@H](CCC(=O)O)C[C@H](C)C[C@H](C)C(=O)/C=C(\O)[C@H](C)C[C@H](C)C/C=C/[C@@H](C)[C@@H](O)[C@@H](C)[C@@H](O)C[C@@H]1CC[C@@](C)([C@H]2CC[C@@](C)([C@@H](C)O)O2)O1` [ionomycin], in the series with MC-9 cells [4], the PI staining result is “no significant increase”. Besides, in the series with MC-9 cells [5] (channels 1 and 3), the “styryl dye fluorescence intensity (FM 4-64 and FM 1-43)” value is “clear stimulation dependent increase”. The “FM 1-43 signal” value in the series on MC-9 cells [5] (four-parameter analysis, data not shown) is reported as “stimulation dependent increases in both signals”. Also, the “Lysotracker green fluorescence intensity, channel 1” value in the series with MC-9 cells [6] (MC-9 cells loaded 1 hour, 2 μM vs DMSO) is on record as “significant loss of signal”. Further, in the series on MC-9 cells [6] (setting [11]), the Lysotracker green signal entry is listed as “decreases”. In the series with MC-9 cells [1] (setting [11]), the forward scatter entry is recorded as “increases” and the side scatter entry is “decreases”. The “forward and side scatter” value in the series with MC-9 cells [1] (MC-9 cells, 2 μM vs DMSO, 30 minute timepoint, data not shown) was “stimulation dependent changes in both parameters”. For the same compound, the annexin-V-APC signal result in the series on MC-9 cells [7] (setting [11]) is “becomes greater”. Further, the annexin-V-APC signal result with MC-9 cells [7] (MC-9 cells, 2 μM vs DMSO, four-parameter analysis with FM 1-43, data not shown) was “stimulation dependent increases in both signals”. Further, in the series on MC-9 cells [7] (MC-9 cells, 2 μm vs DMSO), the annexin-V-FITC binding result was “significant increase”. Moreover, the “glucuronidase or hexosaminidase activity in the supernatant” value with MC-9 cells [8] is “Stimulated release of granule enzymatic activity is evident”.
For the compound “BSA-DNP: bovine serum albumin coupled to DNP, antigen used as the stimulus”, in the series with RBL-2H3 cells [9], the supernatant hexosaminidase activity result is reported as “dose response”. In addition, the “annexin-V-FITC staining of cell surface granules” value with RBL-2H3 cells [10] is “Numerous cell surface granules are stained”.
